Numbers after ± are expanded uncertainties.
Settings: Liquid

CCOCCO [2-ethoxyethan-1-ol]
viscosity [mPa·s]
Settings	293.15 K	303.15 K	313.15 K	323.15 K	333.15 K	343.15 K	353.15 K
100 kPa	2.073 ± 0.049	1.663 ± 0.039	1.346 ± 0.032	1.117 ± 0.026	0.941 ± 0.022	0.804 ± 0.019	0.695 ± 0.017
20000 kPa	2.417 ± 0.12	1.922 ± 0.095	1.599 ± 0.079	1.32 ± 0.065	1.081 ± 0.054	0.939 ± 0.046	0.829 ± 0.041
40000 kPa	2.776 ± 0.14	2.21 ± 0.11	1.834 ± 0.091	1.529 ± 0.076	1.236 ± 0.061	1.078 ± 0.053	0.953 ± 0.047
60000 kPa	3.145 ± 0.16	2.512 ± 0.12	2.071 ± 0.1	1.743 ± 0.086	1.408 ± 0.07	1.221 ± 0.06	1.068 ± 0.053
80000 kPa	3.509 ± 0.17	2.816 ± 0.14	2.308 ± 0.11	1.931 ± 0.096	1.592 ± 0.079	1.362 ± 0.067	1.172 ± 0.058
100000 kPa	3.859 ± 0.19	3.115 ± 0.15	2.543 ± 0.13	2.13 ± 0.11	1.787 ± 0.088	1.5 ± 0.074	1.265 ± 0.063

CC(C)OCCO [2-isopropoxyethanol]
viscosity [mPa·s]
Settings	293.15 K	303.15 K	313.15 K	323.15 K	333.15 K	343.15 K	353.15 K
100 kPa	2.38 ± 0.056	1.87 ± 0.044	1.506 ± 0.036	1.228 ± 0.029	1.024 ± 0.024	0.864 ± 0.021	0.739 ± 0.018
20000 kPa	2.939 ± 0.14	2.284 ± 0.11	1.861 ± 0.092	1.485 ± 0.074	1.25 ± 0.062	1.046 ± 0.052	0.927 ± 0.046
40000 kPa	3.493 ± 0.17	2.691 ± 0.13	2.186 ± 0.11	1.731 ± 0.086	1.48 ± 0.073	1.236 ± 0.061	1.09 ± 0.054
60000 kPa	4.073 ± 0.2	3.123 ± 0.15	2.512 ± 0.12	2.002 ± 0.099	1.72 ± 0.085	1.445 ± 0.071	1.236 ± 0.061
80000 kPa	4.661 ± 0.23	3.566 ± 0.18	2.838 ± 0.14	2.296 ± 0.11	1.966 ± 0.097	1.669 ± 0.083	1.368 ± 0.068
100000 kPa	5.241 ± 0.26	4.008 ± 0.2	3.162 ± 0.16	2.611 ± 0.13	2.212 ± 0.11	1.903 ± 0.094	1.536 ± 0.076

COCCO [2-methoxyethan-1-ol]
viscosity [mPa·s]
Settings	293.15 K	303.15 K	313.15 K	323.15 K	333.15 K	343.15 K	353.15 K
100 kPa	1.707 ± 0.04	1.398 ± 0.033	1.162 ± 0.027	0.984 ± 0.023	0.843 ± 0.02	0.731 ± 0.017	0.635 ± 0.015
20000 kPa	1.948 ± 0.096	1.583 ± 0.078	1.339 ± 0.066	1.135 ± 0.056	0.965 ± 0.048	0.852 ± 0.042	0.738 ± 0.036
40000 kPa	2.186 ± 0.11	1.777 ± 0.088	1.489 ± 0.073	1.268 ± 0.063	1.084 ± 0.053	0.958 ± 0.047	0.834 ± 0.041
60000 kPa	2.426 ± 0.12	1.977 ± 0.098	1.647 ± 0.081	1.405 ± 0.069	1.21 ± 0.06	1.058 ± 0.052	0.924 ± 0.046
80000 kPa	2.659 ± 0.13	2.176 ± 0.11	1.814 ± 0.089	1.544 ± 0.076	1.338 ± 0.066	1.149 ± 0.057	1.006 ± 0.05
100000 kPa	2.878 ± 0.14	2.367 ± 0.12	1.988 ± 0.098	1.685 ± 0.083	1.466 ± 0.072	1.231 ± 0.061	1.08 ± 0.053
